Among the data in US9884048B2, “ERK inhibitors” (Merck Sharp & Dohme Corp., priority 2014, dated 2018) are IC50 values, retold here.

SMILES strings stand for the structures.

phosphorylated active hERK2 enzyme, sequence (P28482 whole entry): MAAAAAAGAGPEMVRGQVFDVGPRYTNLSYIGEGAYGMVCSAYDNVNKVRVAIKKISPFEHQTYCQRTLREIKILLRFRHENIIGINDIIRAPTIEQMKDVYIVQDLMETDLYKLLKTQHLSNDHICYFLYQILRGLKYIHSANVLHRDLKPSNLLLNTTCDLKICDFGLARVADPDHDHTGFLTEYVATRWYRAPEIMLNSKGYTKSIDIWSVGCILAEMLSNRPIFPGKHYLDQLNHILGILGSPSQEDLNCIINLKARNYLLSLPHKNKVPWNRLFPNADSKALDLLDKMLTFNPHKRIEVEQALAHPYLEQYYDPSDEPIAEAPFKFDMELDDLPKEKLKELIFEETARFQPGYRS

One assay addresses phosphorylated active hERK2 enzyme (Homo sapiens (Human), UniProt P28482).
Conditions: not given
Broadly, the IC50 is the concentration needed to halve the response being measured. Compound `CCO[C@H]1CCCC[C@@H]1NC(=O)Nc1cc2cnn(-c3ccnc(C)c3)c2cn1` (racemic) [Example 146, Racemic 1-[(1S,2S) and (1R,2R)-2-ethoxycyclohexyl]-3-[1-(2-methylpyridin-4-yl)-1H-pyrazolo[3,4-c]pyridin-5-yl]urea] showed an IC50 of 180 nM.

Staying with this assay, now noted: read-out: ERK2 IC50; IMAP-FP assay; 0.5 nM hERK2, 30 μM ATP; 10 point titration, 3 μM starting concentration.
Turning to `CC(C)(O)[C@@H](NC(=O)Nc1cc2cnn(-c3ncc4c(n3)CNCC4)c2cn1)c1ccc(F)cc1` [Example 317, 1-[(1S)-1-(4-fluorophenyl)-2-hydroxy-2-methylpropyl]-3-[1-(5,6,7,8-tetrahydropyrido[3,4-d]pyrimidin-2-yl)-1H-pyrazolo[3,4-c]pyridin-5-yl]urea], the IC50 was determined as 327 nM.
With `Cc1cc(-n2ncc3cc(NC(=O)NCC4CN(C)C4)ncc32)ccn1` [Example 264, 1-((1-methylazetidin-3-yl)methyl)-3-(1-(2-methylpyridin-4-yl)-1H-pyrazolo[3,4-c]pyridin-5-yl)urea], the IC50 came out at 70 nM.
On the same count and under the same terms, to `CNC(=O)c1ccc(CNC(=O)Nc2cc3cnn(-c4ccnc(C)c4)c3cn2)cc1` [Example 92, N-methyl-4-[({[1-(2-methylpyridin-4-yl)-1H-pyrazolo[3,4-c]pyridin-5-yl]carbamoyl}amino)methyl] benzamide] belongs 801 nM; to `C[C@@H](NC(=O)Nc1cc2cnn(-c3ccncc3)c2cn1)c1ccc(F)cc1` [Example 7, 1-[(1R)-1-(4-fluorophenyl)ethyl]-3-(1-pyridin-4-yl-1H-pyrazolo[3,4-c]pyridin-5-yl)urea], 16.2 nM; to `CC(=O)N[C@H]1CCCC[C@@H]1NC(=O)Nc1cc2cnn(-c3ccnc(C)c3)c2cn1` [Example 139, N-[(1S,2S)-2-({[1-(2-methylpyridin-4-yl)-1H-pyrazolo[3,4-c]pyridin-5-yl]carbamoyl}amino)cyclohexyl] acetamide], 2160 nM.
For `Cc1cc(-n2ncc3cc(NC(=O)N[C@@H]4CN(C)[C@H](C)[C@H]4c4ccccc4C)ncc32)ccn1` [Example 106, 1-[(3S,4S,5R)-1,5-dimethyl-4-(2-methylphenyl)-pyrrolidin-3-yl]-3-[1-(2-methylpyridin-4-yl)-1H-pyrazolo[3,4-c]pyridin-5-yl)urea], the IC50 came out at 1.52 nM.
Still for that read-out and setting: the value for `Cc1cc(-n2ncc3cc(NC(=O)N[C@H](CN(C)C)c4ccccc4)ncc32)ccn1` [Example 130, 1-[(1S)-2-(dimethylamino)-1-phenylethyl]-3-[1-(2-methylpyridin-4-yl)-1H-pyrazolo[3,4-c]pyridin-5-yl)urea] was 123 nM.
Same read-out and setting: the value for `Cc1cc(-n2ncc3cc(NC(=O)NCC(CO)c4ccccc4)ncc32)ccn1` (stereo not drawn) [Example 49, 1-(3-hydroxy-2-phenylpropyl)-3-[1-(2-methylpyridin-4-yl)-1H-pyrazolo[3,4-c]pyridin-5-yl]urea] was 7.66 nM; that for `CC(C)(O)[C@@H](NC(=O)Nc1cc2cnn(-c3ccc(F)cc3)c2cn1)c1ccccc1` [Example 296, 1-[1-(4-fluorophenyl)-1H-pyrazolo[3,4-c]pyridin-5-yl]-3-[(1S)-2-hydroxy-2-methyl-1-phenylpropyl]urea] was 0.812 nM.
For the compound `Cc1cc(-n2ncc3cc(NC(=O)NCc4c(C)nn(C)c4C)ncc32)ccn1` [Example 116, 1-[1-(2-methylpyridin-4-yl)-1H-pyrazolo[3,4-c]pyridin-5-yl]-3-[(1,3,5-trimethyl-1H-pyrazol-4-yl)methyl]urea], the concentration for half-maximal inhibition (IC50) was 27.6 nM.
On the same count and under the same terms, to `C[C@@H](NC(=O)Nc1cc2cnn(-c3cnn(C)c3)c2cn1)c1cccc(Cl)c1` [Example 217, 1-[(1R)-1-(3-chlorophenyl)ethyl]-3-[1-(1-methyl-1H-pyrazol-4-yl)-1H-pyrazolo[3,4-c]pyridin-5-yl]urea] belongs 5.45 nM; to `Cc1cc(-n2ncc3cc(NC(=O)N[C@H]4CN(C)C[C@@H]4C4CC4)ncc32)ccn1` [Example 30, 1-[(3R,4S)-4-cyclopropyl-1-methylpyrrolidin-3-yl]-3-[1-(2-methylpyridin-4-yl)-1H-pyrazolo[3,4-c]pyridin-5-yl]urea], 110 nM; to `Cc1cc(-n2ncc3cc(NC(=O)N[C@@H]4CN(C)C[C@H]4c4ccccc4)ncc32)ccn1` [Example 181, 1-((3S,4R)1-methyl-4-phenyl-pyrrolidin-3-yl)-3-[1-(2-methyl-pyridin-4-yl)-1H-pyrazolo[3,4-c]pyridin-5-yl]urea], 0.983 nM.
Same read-out and setting: the value for `Cc1cc(-n2ncc3cc(NC(=O)N[C@H]4CN(C)C[C@@H]4Oc4ccc(F)cc4)ncc32)ccn1` [Example 285, 1-[(3S,4S)-4-(4-fluorophenoxy)-1-methylpyrrolidin-3-yl]-3-[1-(2-methylpyridin-4-yl)-1H-pyrazolo[3,4-c]pyridin-5-yl]urea] was 16.4 nM.
With `C[C@@H](NC(=O)Nc1cc2cnn(CC3CCC3)c2c(CO)n1)c1ccccc1` [Example 304, 1-[1-(cyclobutylmethyl)-7-(hydroxymethyl)-1H-pyrazolo[3,4-c]pyridin-5-yl]-3-[(1R)-1-phenylethyl]urea], the IC50 turned out to be 230 nM.
On the same count and under the same terms, the value for `Cc1cc(-n2ncc3cc(NC(=O)NC4CCC(c5ccc(F)cc5)C4)ncc32)ccn1` (stereo not drawn) [Example 170, 1-[3-(4-fluorophenyl)cyclopentyl]-3-[1-(2-methylpyridin-4-yl)-1H-pyrazolo[3,4-c]pyridin-5-yl]urea] was 196 nM.
Same read-out and setting: the value for `Cc1cc(-n2ncc3cc(NC(=O)N[C@H](C)c4ccccc4)nc(COCCO)c32)ccn1` [Example 253, 1-{7-[(2-hydroxyethoxy)methyl]-1-(2-methylpyridin-4-yl)-1H-pyrazolo[3,4-c]pyridin-5-yl}-3-[(1R)-1-phenylethyl]urea] was 23.4 nM.
On to `COC[C@@H](NC(=O)Nc1cc2cnn(-c3ccnc(C)c3)c2cn1)c1ccccc1` [Example 90, 1-[(1S)-2-methoxy-1-phenylethyl]-3-[1-(2-methylpyridin-4-yl)-1H-pyrazolo[3,4-c]pyridin-5-yl)urea], for which the IC50 came out at 0.68 nM.
On the same count and under the same terms, the value for `Cc1cc(-n2ncc3cc(NC(=O)N[C@@H]4CN(C(C)C)C[C@H]4c4ccccc4)ncc32)ccn1` [Example 197, 1-[(3S,4R)-1-(1-methyl-ethyl)-4-phenylpyrrolidin-3-yl]-3-[1-(2-methylpyridin-4-yl)-1H-pyrazolo[3,4-c]-pyridin-5-yl]urea] was 60.8 nM.
The same measure, in the same setting: the value for `CCO[C@H]1CN(Cc2c(F)cccc2F)C[C@@H]1NC(=O)Nc1cc2cnn(-c3ccnc(C)c3)c2cn1` [Example 278, 1-[(3S,4S)-1-(2,6-difluorobenzyl)-4-ethoxypyrrolidin-3-yl]-3-[1-(2-methylpyridin-4-yl)-1H-pyrazolo[3,4-c]pyridin-5-yl]urea] was 45.3 nM.
On the same count and under the same terms, the value for `Cc1cc(-n2ncc3cc(NC(=O)NC(C)c4cccc(OC(F)(F)F)c4)ncc32)ccn1` (stereo not drawn) [Example 48, 1-[1-(2-methylpyridin-4-yl)-1H-pyrazolo[3,4-c]pyridin-5-yl]-3-{1-[3-(trifluoromethoxy)phenyl]ethyl}urea] was 10.7 nM; that for `Cc1cc(-n2ncc3cc(NC(=O)NCc4cccc(-c5ncco5)c4)ncc32)ccn1` [Example 94, 1-[1-(2-methylpyridin-4-yl)-1H-pyrazolo[3,4-c]pyridin-5-yl]-3-[3-(1,3-oxazol-2-yl)benzyl]urea] was 13.3 nM.
As for `Cc1cc(-n2ncc3cc(NC(=O)NC(C)c4ccc(S(C)(=O)=O)cc4)ncc32)ccn1` (stereo not drawn) [Example 66, 1-[1-(2-methylpyridin-4-yl)-1H-pyrazolo[3,4-c]pyridin-5-yl]-3-{1-[4-(methylsulfonyl)phenyl]ethyl}urea], the IC50 was 7.78 nM.
Same read-out and setting: to `Cc1cc(-n2ncc3cc(NC(=O)NC4CCNC4)ncc32)ccn1` (stereo not drawn) [Example 133, 1-[1-(2-methylpyridin-4-yl)-1H-pyrazolo[3,4-c]pyridin-5-yl]-3-pyrrolidin-3-ylurea] belongs 456 nM.
Same read-out and setting: to `Cc1cc(-n2ncc3cc(NC(=O)NCc4cccc(Cl)c4)ncc32)ccn1` [Example 215, 1-(3-chlorobenzyl)-3-[1-(2-methylpyridin-4-yl)-1H-pyrazolo[3,4-c]pyridin-5-yl]urea] belongs 5.04 nM.
Still for that read-out and setting: to `O=C(NCc1cccc(Cl)c1)Nc1cc2cnn(-c3ccncc3)c2cn1` [Example 41, 1-(3-chlorobenzyl)-3-(1-pyridin-4-yl-1H-pyrazolo[3,4-c]pyridin-5-yl)urea] belongs 0.499 nM.
For the compound `CCOC[C@@H](NC(=O)Nc1cc2cnn(-c3ccnc(C)c3)c2cn1)c1ccccc1` [Example 129, 1-[(1S)-2-ethoxy-1-phenylethyl]-3-[1-(2-methylpyridin-4-yl)-1H-pyrazolo[3,4-c]pyridin-5-yl)urea], the IC50 was 1.09 nM.
Still for that read-out and setting: the value for `CNC(=O)c1cccc(CNC(=O)Nc2cc3cnn(-c4ccnc(C)c4)c3cn2)c1` [Example 97, N-methyl-3-[({[1-(2-methylpyridin-4-yl)-1H-pyrazolo[3,4-c]pyridin-5-yl]carbamoyl}amino)methyl] benzamide] was 3.39 nM; that for `C[C@@H](NC(=O)Nc1cc2cnn(CC3CC3)c2c(CO)n1)c1ccccc1` [Example 308, 1-[1-(cyclopropylmethyl)-7-(hydroxymethyl)-1H-pyrazolo[3,4-c]pyridin-5-yl]-3-[(1R)-1-phenylethyl]urea] was 79.5 nM.
In the case of `Cc1cc(-n2ncc3cc(NC(=O)N[C@H]4CN(C)C[C@@H]4c4ccc(F)c(Cl)c4)ncc32)ccn1` [Example 18, 1-[(3R,4S)-4-(3-chloro-4-fluorophenyl)-1-methylpyrrolidin-3-yl]-3-[1-(2-methylpyridin-4-yl)-1H-pyrazolo[3,4-c]pyridin-5-yl)urea], the IC50 came to 2.14 nM.
As for `Cc1cc(-n2ncc3cc(NC(=O)N[C@H]4CN(C)C[C@@H]4C)ncc32)ccn1` [Example 25, 1-[(3R,4S)-1,4-dimethylpyrrolidin-3-yl]-3-[1-(2-methylpyridin-4-yl)-1H-pyrazolo[3,4-c]pyridin-5-yl]urea], the IC50 was found to be 66.4 nM.
Still for that read-out and setting: to `C[C@@H](NC(=O)Nc1cc2cnn(CCC#N)c2c(CO)n1)c1ccccc1` [Example 323, 1-[1-(2-Cyanoethyl)-7-(hydroxymethyl)-1H-pyrazolo[3,4-c]pyridin-5-yl]-3-[(R)-1-phenylethyl]urea] belongs 110 nM.
